For 28 molecules, inhibition results are on record in US8722742B2, “Chemical compounds having antiviral activity against Dengue virus and other Flaviviruses” (Centro de Ingenieria Genetica y Biotecnologia, priority 2008, dated 2014).

What is called inhibition is the relative decrease from the control value, in per cent. A higher inhibition goes with strong suppression.

This assay concerns DEN2 virus. In words: Plaque inhibition assay in Vero cells. The assay is classed as cell-based, Dengue virus serotype 2. The note with it: Dengue virus, 120 h. The method, then:
Vero cells were grown in 24-wells plates until the monolayer reached approximately 90% confluence and two washes of the monolayer were done with medium MEM without SFB. Preparations of DEN2 virus equivalent to a multiplicity of infection of 0.1 were preincubated in MEM medium with and without presence of chemical compounds (100 uM) for about 1 hour at room temperature. Then, the virus/compounds mixture and virus/control mixture were incubated with monolayers for 1 hour at 37° C. After finished incubation, the cells were washed again and incubated during 5 days at 37° C. in high-density medium (MEM supplemented with non-essential amino acids, SFB 1%, carboxymethylcellulose 1%) to facilitate formation of lysis plaques. Blue Black Naphtol 0.1% in sodium acetate 0.15 mol/L was used for staining. In each experiment two replics were tested for each point and three independent determinations were done. The percentage of infection inhibition was calculated according to the following expression: […]
`O=c1c2cc3c(=O)n(CCCn4ccnc4)c(=O)c3cc2c(=O)n1CCCn1ccnc1` came in with an inhibition at 100 µM of 0 to 30%. Regarding `O=C(CC1C(=O)c2ccccc2C1=O)Oc1ccc(-c2ccc(OC(=O)CN3C(=O)c4ccccc4C3=O)cc2)cc1`, the inhibition at 100 µM was 0 to 30%. `O=S(=O)(NCc1ccccc1)c1ccc(S(=O)(=O)NC2CCCCC2)cc1` [C-SIJ01002]: the inhibition at 100 µM is 70 to 100%. `O=S(=O)(NCc1ccccc1)c1ccc(S(=O)(=O)NC2CC2)cc1` [C-SIJ01003] had an inhibition at 100 µM of 30 to 100%.

`O=S(=O)(NCc1ccc2c(c1)OCO2)c1ccc(S(=O)(=O)NC2CCCCC2)cc1` [C-SIJ01006] had an inhibition at 100 µM of 70 to 100%. On to `O=S(=O)(NCc1ccc2c(c1)OCO2)c1ccc(S(=O)(=O)NC2CC2)cc1` [C-SIJ01008], for which the inhibition at 100 µM fell in the range of 30 to 100%. For `O=S(=O)(NCCC1=CCCCC1)c1ccc(S(=O)(=O)NCc2ccc3c(c2)OCO3)cc1` [C-SIJ01009] the value was 70 to 100%; for `O=S(=O)(NCc1ccco1)c1ccc(S(=O)(=O)NC2CCCCC2)cc1` [C-SIJ01020], 70 to 100%.

Take `CC(=O)N1CCN(S(=O)(=O)c2ccc(S(=O)(=O)NC3CCCCC3)cc2)CC1` [C-SIJ01023]: the inhibition at 100 µM is 70 to 100%.

For `CCCCNS(=O)(=O)c1ccc(S(=O)(=O)N2CCN(C(C)=O)CC2)cc1` [C-SIJ01026], the inhibition at 100 µM was in the range of 30 to 100%. Molecule `O=S(=O)(NCCc1ccccc1)c1ccc(S(=O)(=O)N2CCCCC2)cc1` [C-SIJ01031] had an inhibition at 100 µM of 70 to 100%. For `O=S(=O)(NCc1ccc(F)cc1)c1ccc(S(=O)(=O)N2CCCCC2)cc1` [C-SIJ01033] the value was 30 to 100%; for `O=S(=O)(NCC1CC1)c1ccc(S(=O)(=O)N2CCCCC2)cc1` [C-SIJ01034], 30 to 100%. For `O=S(=O)(NC(c1ccccc1)c1ccccc1)c1ccc(S(=O)(=O)N2CCCCC2)cc1` [C-SIJ01039] the value was 70 to 100%. With `O=S(=O)(NCCO)c1ccc(S(=O)(=O)N2CCCCC2)cc1` [C-SIJ01042], the inhibition at 100 µM lay in the range of 70 to 100%. In turn, `CC(C)CNS(=O)(=O)c1ccc(S(=O)(=O)N2C(C)CCCC2C)cc1` (stereo not shown) [C-SIJ01045] displayed an inhibition at 100 µM of 30 to 100%. For `CC1CCCC(C)N1S(=O)(=O)c1ccc(S(=O)(=O)NCCc2ccncc2)cc1` (stereo not shown) [C-SIJ01047] the value was 70 to 100%.

The molecule `CC1CCCC(C)N1S(=O)(=O)c1ccc(S(N)(=O)=O)cc1` (stereo not shown) [C-SIJ01051] displayed an inhibition at 100 µM of 30 to 100%.

The molecule `COC(CNS(=O)(=O)c1ccc(S(=O)(=O)N2CCOCC2)cc1)OC` [C-SIJ01056] displayed an inhibition at 100 µM of 70 to 100%.

The molecule `CC(C)(C)C(=O)CNS(=O)(=O)c1ccc(S(=O)(=O)N2CCOCC2)cc1` [C-SIJ01062] showed an inhibition at 100 µM of 70 to 100%.

Molecule `O=S(=O)(Nc1ccccc1OC(F)F)c1ccc(S(=O)(=O)N2CCOCC2)cc1` [C-SIJ01066] displayed an inhibition at 100 µM of 70 to 100%. The molecule `O=C(CN1C(=O)c2ccccc2S1(=O)=O)Nc1ccc(S(=O)(=O)N2CCCCCC2)cc1` [C-SIJ04078] displayed an inhibition at 100 µM of 70 to 100%. `CCN(Cc1ccccc1)S(=O)(=O)c1ccc(S(=O)(=O)N2CCOCC2)cc1` [C-SIJ06097] displayed an inhibition at 100 µM of 70 to 100%.

In turn, `NS(=O)(=O)c1ccc(S(=O)(=O)N2CCOCC2)cc1` [C-SIJ06099] returned an inhibition at 100 µM of 30 to 100%. In turn, `O=CN1CCN(S(=O)(=O)c2ccc(S(=O)(=O)N3CCOCC3)cc2)CC1` [C-SIJ06102] yielded an inhibition at 100 µM of 30 to 100%. For `CS(=O)(=O)N1CCN(S(=O)(=O)c2ccc(S(=O)(=O)N3CCOCC3)cc2)CC1` [C-SIJ06103] the value was 70 to 100%. For the molecule `O=C(O)[C@H]1CCCN(S(=O)(=O)c2ccc(S(=O)(=O)N3CCCCC3)cc2)C1` [C-SIJ06111], the inhibition at 100 µM lay within 70 to 100%. Take `COc1ccc(/C=N/NC(=O)Cc2ccc([N+](=O)[O-])cc2)cc1OC` [C-SIJ12143]: the inhibition at 100 µM lay in the range of 70 to 100%.
